This is an account of results in patent US20230201190A1, “USE OF MULTI[…] FOR TREATING THE RESPIRATORY DISTRESS AND CYTOKINE STORM SYNDROMES ASSOCIATED WITH C[…] INFECTIONS” (H4 ORPHAN PHARMA, priority 2020, published 2023).

The conditions of series [1]: noted by the HAS; cited from earlier work.
The test system of series [2] is CD63 expression on basophils. In words: Flow CAST basophil activation test, anti-FcεRI antibody stimulation, CD63/CCR3 flow cytometry on whole blood. The series is classed as cell-based, human. An excerpt: To study this modulating action of CD63 by tritoqualine, the inventors have used the basophil and a modified commercial test, the Flow CAST® kit from BULHMANN Laboratories AG (Switzerland), which is a Basophil Activation Test (BAT) that can be used for the in vitro detection of basophil degranulation as well as for the study of immediate type allergic reactions and hypersensitivities.
The test is designed for the in vitro diagnosis of CD63 expression as a surface marker of activated basophils. The test is performed on whole blood; flow cytometry is used to quantify CD63 expression on the surface of activated basophils.
To evaluate degranulation via CD63 expression, the Flow CAST® kit has been partially used. This test includes an anti-IgE receptor. The inventors have only used the latter activator.
These different couplings make it possible to characterise cells separately and in particular basophils. 4 windowing zones will be distinguished according to whether or not CD63 labelling is observed and whether or not CCR3 labelling is observed • CD63+ and CCR3− which characterise non-basophilic degranulated cells. • CD63+ and CCR3+ which characterise degranulated basophils. • CD63− and CCR3− which characterise non-degranulated non-basophilic cells. • CD63− and CCR3+ which characterise non-degranulated basophils.
The degranulation protocol has been carried out using the Flow CAST. […]

A short description of series [3]: Light sensitivity of the powder. The format is physicochemical. The note with it: white powder; degrades to Cotarnine and phthalic acid.
The subject of series [4] is BL6 mice sensitised to OVA receiving double-stranded RNA (Poly U/Poly A). Kind of series: Whole body plethysmography (PenH) in OVA-sensitised mice given double-stranded RNA poly(A:U). The series is classed as in vivo, mouse. Here is the method:
The inventors used a C57/B16J mouse model, hereafter referred to as BL6.
The protocol simulating a double-stranded RNA viral infection has been performed with 2 groups of 15 mice; these are 8 week old female mice. A control group treated only with saline served as a negative control.
BL6 mice are treated according to the protocol below. BL6 mice have been sensitised by intraperitoneal injections of […] OVA (ovalbumin) on days 0, 2 and 4. Thereafter, from day 10 to day 15, the mice have received a daily treatment with aerosolized OVA at the concentration of 20 mg/ml or saline for 20 min, using an ultrasound nebulizer (Ultra-Neb99). One hour later, the mice received […] of poly (A:U) or saline intranasally.
Group 3 which is sensitised to OVA and also receives double stranded RNA (Poly U/Poly A) according to the protocol described above but also tritoqualine at 10 mg/kg.
Each group is analysed by whole body plethysmography and the measurements are expressed in PenH. A measurement is performed every minute until 10 minutes after the introduction of the double-stranded RNA. Tritoqualine treatment is given 1 hour before the introduction of Poly U/Poly A (double-stranded RNA).
In group 3, which is the group treated with tritoqualine at a dose of 10 mg/kg (mice with viral infection after sensitisation to ovalbumin as well) there are have the following results at time 1 minute to 10 minutes, expressed in PenH units and averaged over 15 mice: […]

A further series has as its target T1, histidine decarboxylase (Homo sapiens, UniProt P19113).
T1 sequence (P19113 1-662): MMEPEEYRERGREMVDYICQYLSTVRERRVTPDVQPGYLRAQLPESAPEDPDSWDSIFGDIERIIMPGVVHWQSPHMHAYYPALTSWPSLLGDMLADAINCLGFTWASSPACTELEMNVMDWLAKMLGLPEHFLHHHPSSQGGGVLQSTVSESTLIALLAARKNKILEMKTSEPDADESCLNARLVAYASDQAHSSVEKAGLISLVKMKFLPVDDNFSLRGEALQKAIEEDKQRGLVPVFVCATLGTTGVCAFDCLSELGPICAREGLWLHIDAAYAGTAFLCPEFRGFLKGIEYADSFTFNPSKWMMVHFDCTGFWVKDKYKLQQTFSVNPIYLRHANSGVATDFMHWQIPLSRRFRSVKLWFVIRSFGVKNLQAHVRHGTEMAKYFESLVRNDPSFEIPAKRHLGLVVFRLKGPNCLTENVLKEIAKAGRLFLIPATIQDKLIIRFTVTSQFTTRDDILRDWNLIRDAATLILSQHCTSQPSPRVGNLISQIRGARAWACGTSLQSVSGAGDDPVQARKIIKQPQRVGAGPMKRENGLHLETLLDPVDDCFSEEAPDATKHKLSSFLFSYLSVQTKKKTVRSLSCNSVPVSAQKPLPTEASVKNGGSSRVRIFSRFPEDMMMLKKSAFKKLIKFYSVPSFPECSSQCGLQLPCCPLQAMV
The note with it: cited from earlier work.

For the next series, the system named is TGF-β activation. The note with it: alveolar macrophages from healthy volunteers, dose and exposure dependent; cited from earlier work.

Regarding `COC(=O)c1ccc2c(c1)NC(=O)/C2=C(\Nc1ccc(N(C)C(=O)CN2CCN(C)CC2)cc1)c1ccccc1` [OFEV, Nintedanib], in series [1], the side effects is given as approximately 92%.
Turning to `CCOc1c(N)c2c(c(OCC)c1OCC)C(C1c3c(cc4c(c3OC)OCO4)CCN1C)OC2=O` (centres unmarked) [tritoqualine, 7-amino-4,5,6-triethoxy-3-(5,6,7,8-tetrahydro-4-methoxy-6-methyl-1,3-dioxolo[4,5-g]isoquinolin-5-yl)phthalide], the results for the “cells still expressing CD63” value in series [2] (tritoqualine 5 μmol) and in series [2] (tritoqualine 10 μmol) were “approximately 40%” and “less than 2%”, respectively. Moreover, the sensitivity to light result in series [3] is given as “very sensitive to light”. For the same compound, the “difference in airway resistance between tritoqualine group and untreated group (statistical analysis)” value in series [4] (10 mg/kg, p<0.001) is “highly significant”. The “airway resistance, mean of 15 mice” value is given as 3.05 PenH in series [4] (T1 (1 minute after double-stranded RNA), tritoqualine 10 mg/kg given 1 hour before); 3.11 PenH in series [4] (T2 (2 minutes), tritoqualine 10 mg/kg); 3.13 PenH in series [4] (T3 (3 minutes), tritoqualine 10 mg/kg); 3.97 PenH in series [4] (T4 (4 minutes), tritoqualine 10 mg/kg); 4.07 PenH in series [4] (T5 (5 minutes), tritoqualine 10 mg/kg); 4.14 PenH in series [4] (T6 (6 minutes), tritoqualine 10 mg/kg). Besides, the “airway resistance, mean of 15 mice” value was found to be 4.02 PenH in series [4] (T7 (7 minutes), tritoqualine 10 mg/kg); 3.85 PenH in series [4] (T8 (8 minutes), tritoqualine 10 mg/kg); 3.14 PenH in series [4] (T9 (9 minutes), tritoqualine 10 mg/kg); 2.74 PenH in series [4] (T10 (10 minutes), tritoqualine 10 mg/kg). Besides, on histidine decarboxylase, the “inhibitory action on histidine decarboxylase” value is given as “very weak”.
Regarding `COCCN(CCCCc1ccc2c(n1)NCCC2)CC[C@H](Nc1ncnc2ccccc12)C(=O)O` [PLN-74809], the “inhibition of TGF-β activation” value in the series with TGF-β activation is reported as “up to 70%”.
